Data published in the supplement of paper PMC10307832.

Tests used:
Test in all cases: relative viability (nuclei count vs DMSO), 5 days (fraction); higher = more cells survive
Midostaurin + Phenformin = compound: CO[C@@H]1[C@H](N(C)C(=O)c2ccccc2)C[C@H]2O[C@]1(C)n1c3ccccc3c3c4c(c5c6ccccc6n2c5c31)C(=O)NC4 [Midostaurin] + N=C(N)NC(=N)NCCc1ccccc1 [Phenformin] (partner 250 µM)
Summary of the method: (§1)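 Five library-drug doses in √10 steps were combined with a fixed anchor-drug dose, or a single drug was given alone, by pin tool to lung cancer cell lines in 1536-well plates the day after seeding. Nuclei were stained and counted after 5 days. Relative viability is the nuclei count in treated wells over that in vehicle wells, taken as the median of duplicate plates.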

Midostaurin + Navitoclax = compound: CO[C@@H]1[C@H](N(C)C(=O)c2ccccc2)C[C@H]2O[C@]1(C)n1c3ccccc3c3c4c(c5c6ccccc6n2c5c31)C(=O)NC4 [Midostaurin] + CC1(C)CCC(c2ccc(Cl)cc2)=C(CN2CCN(c3ccc(C(=O)NS(=O)(=O)c4ccc(N[C@H](CCN5CCOCC5)CSc5ccccc5)c(S(=O)(=O)C(F)(F)F)c4)cc3)CC2)C1 [Navitoclax] (partner 0.5 µM)
Summary of the method: as §1

[1] = compound: COc1cc(-c2nn([C@H]3CC[C@H](N4CCN(C(C)=O)CC4)CC3)c3ncnc(N)c23)ccc1NC(=O)c1cc2ccccc2n1C + CCNC(=O)c1noc(-c2cc(C(C)C)c(O)cc2O)c1-c1ccc(CN2CCOCC2)cc1 [Luminespib] (partner 0.01 µM)
Summary of the method: as §1

Midostaurin + Vorinostat = compound: CO[C@@H]1[C@H](N(C)C(=O)c2ccccc2)C[C@H]2O[C@]1(C)n1c3ccccc3c3c4c(c5c6ccccc6n2c5c31)C(=O)NC4 [Midostaurin] + O=C(CCCCCCC(=O)Nc1ccccc1)NO [Vorinostat] (partner 1 µM)
Summary of the method: as §1

[2] = compound: COc1cc(-c2nn([C@H]3CC[C@H](N4CCN(C(C)=O)CC4)CC3)c3ncnc(N)c23)ccc1NC(=O)c1cc2ccccc2n1C + Cc1nc(Nc2ncc(C(=O)Nc3c(C)cccc3Cl)s2)cc(N2CCN(CCO)CC2)n1 [Dasatinib] (partner 0.075 µM)
Summary of the method: as §1

Row | Cell Line | relative viability (Midostaurin + Phenformin; first compound 0.01 µM) | relative viability (Midostaurin + Phenformin; first compound 0.03162 µM) | relative viability (Midostaurin + Phenformin; first compound 0.1 µM) | relative viability (Midostaurin + Phenformin; first compound 0.3162 µM) | relative viability (Midostaurin + Navitoclax; first compound 0.01 µM) | relative viability (Midostaurin + Navitoclax; first compound 0.03162 µM) | relative viability (Midostaurin + Navitoclax; first compound 0.1 µM) | relative viability (Midostaurin + Navitoclax; first compound 0.3162 µM) | relative viability ([1]; first compound 0.0128 µM) | relative viability ([1]; first compound 0.04048 µM) | relative viability ([1]; first compound 0.128 µM) | relative viability ([1]; first compound 1.28 µM) | relative viability (Midostaurin + Vorinostat; first compound 0.01 µM) | relative viability (Midostaurin + Vorinostat; first compound 0.03162 µM) | relative viability (Midostaurin + Vorinostat; first compound 0.1 µM) | relative viability (Midostaurin + Vorinostat; first compound 0.3162 µM) | relative viability ([2]; first compound 0.0128 µM) | relative viability ([2]; first compound 0.04048 µM) | relative viability ([2]; first compound 0.128 µM) | relative viability ([2]; first compound 1.28 µM)
1 | NCI-H520 | 0.572 | 0.471 | 0.756 | 0.634 | 1.05 | 1.17 | 1.02 | 0.865 | 0.219 | 0.211 | 0.174 | 0.243 | 0.684 | 0.702 | 0.694 | 0.412 | 0.211 | 0.273 | 0.236 | 0.307
2 | NCI-H647 | 0.533 | 0.603 | 0.473 | 0.433 | 1.16 | 0.997 | 0.953 | 0.738 | 0.172 | 0.168 | 0.158 | 0.159 | 0.591 | 0.988 | 0.536 | 0.275 | 0.155 | 0.227 | 0.164 | 0.203
3 | SK-LU-1 | 0.521 | 0.54 | 0.49 | 0.421 | 0.703 | 0.704 | 0.808 | 0.886 | 0.213 | 0.187 | 0.203 | 0.141 | 0.735 | 0.765 | 0.685 | 0.47 | 0.201 | 0.236 | 0.211 | 0.243
4 | ChaGo-K-1 | 0.439 | 0.533 | 0.522 | 0.529 | 0.909 | 1.36 | 0.915 | 1.25 | 0.721 | 0.615 | 0.616 | 0.679 | 0.746 | 0.811 | 0.619 | 0.714 | 0.693 | 0.62 | 0.568 | 0.621
5 | NCI-H1650 | 0.408 | 0.498 | 0.413 | 0.302 | 1.29 | 1.03 | 1.08 | 0.846 | 0.162 | 0.194 | 0.19 | 0.181 | 0.57 | 0.606 | 0.585 | 0.793 | 0.265 | 0.304 | 0.32 | 0.29
6 | NCI-H2009 | 0.428 | 0.464 | 0.48 | 0.372 | 1.16 | 1.14 | 1.03 | 1.15 | 1.1 | 1.14 | 1.04 | 1.08 | 0.808 | 0.745 | 0.703 | 0.657 | 0.298 | 0.267 | 0.31 | 0.382
7 | LOU-NH91 | 0.755 | 0.701 | 0.764 | 0.798 | 0.753 | 0.702 | 0.729 | 0.825 | 0.413 | 0.28 | 0.352 | 0.321 | 0.933 | 0.882 | 0.947 | 0.983 | 0.557 | 0.545 | 0.531 | 0.54
8 | NCI-H2405 | 0.415 | 0.441 | 0.377 | 0.491 | 0.921 | 1.04 | – | 0.655 | 0.862 | 0.529 | 0.56 | 0.251 | 1.05 | 1.24 | 1.01 | 1.02 | 0.252 | 0.216 | 0.192 | 0.179
9 | LCLC-97TM1 | 0.434 | 0.324 | 0.38 | 0.415 | 0.467 | – | 0.393 | 0.508 | 0.838 | 0.545 | 0.757 | 0.404 | 0.668 | 0.534 | 0.635 | 0.756 | 0.97 | 0.348 | 0.789 | 0.697
10 | NCI-H596 | 0.898 | 0.963 | 0.816 | 0.986 | 1.09 | 1.02 | 0.978 | 1.07 | 1.06 | 1.2 | 0.893 | 0.583 | 0.554 | 0.645 | 0.625 | 0.877 | 0.564 | 0.73 | 0.573 | 0.559
11 | NCI-H727 | 0.545 | 0.437 | 0.665 | 0.538 | 0.41 | 0.368 | 0.361 | 0.4 | 0.417 | – | 0.343 | 0.236 | 1.4 | 1.11 | 1.16 | 1.26 | 0.322 | – | 0.296 | 0.381
12 | H3255 | 0.376 | 0.34 | 0.311 | 0.34 | 0.575 | 0.587 | 0.488 | 0.562 | 0.959 | 1.06 | 0.848 | 0.701 | 0.86 | 0.615 | 0.765 | 0.744 | 0.345 | 0.313 | 0.434 | 0.307
13 | SK-MES-1 | 0.647 | 0.582 | 0.631 | 0.562 | 1.17 | 1.13 | 1.18 | 1.15 | 0.686 | 0.928 | 0.791 | 0.375 | 1.07 | 0.968 | 0.982 | 1.08 | 0.44 | 0.34 | 0.378 | 0.384
14 | NCI-H1437 | 0.373 | 0.285 | 0.298 | 0.372 | 1.13 | 1.03 | 1.07 | 1.12 | 1.24 | 1.16 | 1.12 | 1.08 | 0.869 | 0.833 | 0.818 | 0.654 | 0.428 | 0.437 | 0.439 | 0.302
15 | LU99A | 0.872 | 0.977 | 0.899 | 0.729 | 0.819 | 0.788 | 0.576 | 0.792 | 0.261 | 0.251 | 0.261 | 0.277 | 0.672 | 0.433 | 0.454 | 0.479 | 0.541 | 0.541 | 0.634 | 0.556
